These are literature values, as cited in US9089677B2, “Transcutaneous multimodal delivery system (TMDS)” (The Regents of the University of California, priority 2011, dated 2015).

Like-named read-outs stand apart in the source and are kept apart here.

Data set [1] has as its system normal rat kidney fibroblast (NRK, clone 49F). As to conditions: NRK fibroblast proliferation; cited from earlier work.
The conditions of data set [2]: full thickness pig burn wounds; cited from earlier work.
For data set [3] the following is noted: up to 3 mg/kg subcutaneously or intravenously in mice, rats, and monkey; cited from earlier work.
For data set [4] the following is noted: diabetic rodent wounds; cited from earlier work.
The test system of data set [5] is keratinocyte and fibroblast. As to conditions: 10% solution; cited from earlier work.
The test system of data set [6] is fungal subspecies (e.g., Candida albicans or glabrata as well as Mucor and Aspergillus). Conditions: time kill-kinetic; cited from earlier work.
The test system of data set [7] is fibroblasts. Conditions: cited from earlier work.
Data set [8] deals with keratinocytes. As to conditions: cited from earlier work.

As for “becaplermin: recombinant human PDGF (rhPDGF)-BB homodimer”, the half maximal activity in data set [1] was 0.5 ng/mL. Also, in data set [2], the granulation tissue formation entry was “significantly increased granulation tissue formation” and the reepithelialization entry is “did not promote faster reepithelialization”. Also, the “acute toxicity and mortality” value in data set [3] is recorded as “no significant acute toxicity or any mortality”. In addition, in data set [4], the granulation tissue formation entry was “significantly increased granulation tissue formation” and the reepithelialization entry was “did not promote faster reepithelialization”.

With `O=[N+]([O-])[O-].[Ag+]` [silver nitrate], the “keratinocyte and fibroblast toxicity” value in data set [5] was “keratinocyte and fibroblast toxicity”. The “antimicrobial activity against fungal subspecies” value in data set [6] was “activity for only C. albicans”.

As for `NCc1ccc(S(N)(=O)=O)cc1` [MA, mafenide acetate], the figures for the “lowest dose with reported in vitro toxicity” value in data set [7] and in data set [8] were 0.1% and 0.85%, respectively.
